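These data come from cells grown in 96-well plates and exposed to compound for 48 hours at five concentrations. GI50 = concentration required for 50% inhibition of growth.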 Calls of active or inactive are those of the source. No stated cut-off is given here; in the data, active = GI50 up to about 1.1 µM and inactive = higher.
Columns and labels:
Assay in all cases: growth of human tumour cells (NCI), 48 h
M14 = test system: M14
A549 = test system: A549
SW-620 = test system: SW-620
NCI-H23 = test system: NCI-H23
HL-60 = test system: HL-60
HCC 2998 = test system: HCC 2998
CAKI-1 = test system: CAKI-1
A498 = test system: A498
SK-MEL-5 = test system: SK-MEL-5
SF-268 = test system: SF-268
HOP-62 = test system: HOP-62
RPMI-8226 = test system: RPMI-8226
SK-MEL-28 = test system: SK-MEL-28
UACC-62 = test system: UACC-62
SF-539 = test system: SF-539
SNB-19 = test system: SNB-19

Measured: GI50

CCOP(=O)(OCC)/C(C#N)=C/c1ccco1
inactive: M14 > 100 µM | A549 > 100 µM | SW-620 > 100 µM | NCI-H23 > 100 µM | HL-60 > 100 µM | HCC 2998 > 100 µM | CAKI-1 > 100 µM | A498 > 100 µM | SK-MEL-5 > 100 µM | SF-268 > 100 µM | HOP-62 > 100 µM | RPMI-8226 > 100 µM | SK-MEL-28 > 100 µM | UACC-62 > 100 µM | SF-539 > 100 µM

CC1(C)OC(=O)C(C#N)=C1/C=C/c1coc2ccc(Cl)cc2c1=O
inactive: M14 35.6 µM | A549 45.7 µM | SW-620 39.2 µM | SNB-19 30.4 µM | NCI-H23 21 µM | HCC 2998 34.8 µM | CAKI-1 10.8 µM | SK-MEL-5 21.9 µM | SF-268 29.5 µM | HOP-62 23.7 µM | RPMI-8226 26.9 µM | SK-MEL-28 47.5 µM | UACC-62 31.7 µM | SF-539 > 10 µM

O=[N+]([O-])c1ccc(-c2ccc(-c3csc(Nc4ccccc4)n3)o2)cc1
inactive: M14 20.6 µM | A549 > 55 µM | SW-620 15.6 µM | SNB-19 40 µM | NCI-H23 20.2 µM | HL-60 2.48 µM | HCC 2998 25.1 µM | CAKI-1 20.6 µM | A498 17.9 µM | SK-MEL-5 19.5 µM | SF-268 18.2 µM | HOP-62 > 68.4 µM | RPMI-8226 12.2 µM | SK-MEL-28 17.6 µM | UACC-62 21.3 µM | SF-539 18.8 µM

O=C(/C=N/c1ccccc1C(=O)[O-])c1cccs1.O=C(/C=N/c1ccccc1C(=O)[O-])c1cccs1.[Zn+2]
inactive: M14 36.4 µM | A549 73.8 µM | SW-620 67.5 µM | SNB-19 43.1 µM | NCI-H23 88.3 µM | HL-60 43.3 µM | HCC 2998 > 10 µM | CAKI-1 91 µM | A498 > 100 µM | SF-268 27.4 µM | HOP-62 > 100 µM | SK-MEL-28 39.5 µM | UACC-62 20.8 µM | SF-539 42.5 µM

COC(=O)/C=C1\CCC2[C@@H](C(=O)CC3[C@]2(C)CCC[C@@]3(C)C(=O)OC)C1C (stereo not given in full)
inactive: M14 17.9 µM | A549 20.2 µM | SW-620 26.6 µM | SNB-19 32.4 µM | NCI-H23 > 10 µM | HL-60 13.1 µM | HCC 2998 34.6 µM | CAKI-1 30.1 µM | A498 34.7 µM | SK-MEL-5 13.5 µM | SF-268 19.7 µM | HOP-62 28.9 µM | RPMI-8226 3.93 µM | SK-MEL-28 16.3 µM | UACC-62 13.6 µM | SF-539 25.2 µM
